Assays:
Experiment in all cases: relative viability (nuclei count vs DMSO), 5 days (fraction); higher = more cells survive
NCI-H23 = details: first compound 0.5 µM
In short: (§1)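 Lung cancer cell lines in 1536-well plates were dosed by pin tool the day after seeding, either with one drug alone or with a fixed anchor-drug dose plus five library-drug doses (not always all listed) in √10 steps. After 5 days, cells were fixed and their nuclei stained in one step (final 0.05% Triton X-100, 1% formaldehyde, 1 ug/ml Hoechst), then counted on 4× images. Relative viability is the nuclei count in treated wells divided by that in vehicle wells. Values are medians of duplicate plates.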

NCI-H520 = test system: NCI-H520
In short: as §1

NCI-H441 = test system: NCI-H441
In short: as §1

EKVX = test system: EKVX
In short: as §1

NCI-H1666 = test system: NCI-H1666
In short: as §1

SK-MES-1 = test system: SK-MES-1
In short: as §1

COR-L 105 = test system: COR-L 105
In short: as §1

NCI-H2170 = test system: NCI-H2170
In short: as §1

ChaGo-K-1 = test system: ChaGo-K-1
In short: as §1

NCI-H1734 = test system: NCI-H1734
In short: as §1

HCC-366 = test system: HCC-366
In short: as §1

H3255 = test system: H3255
In short: as §1

Nc1ccn([C@@H]2O[C@H](CO)[C@@H](O)[C@@H]2O)c(=O)n1 [Cytarabine] + Nc1nc2[nH]cc(CCc3ccc(C(=O)N[C@@H](CCC(=O)O)C(=O)O)cc3)c2c(=O)[nH]1 [Pemetrexed] (partner 0.2 µM)
relative viability (NCI-H23): 0.159 | relative viability (NCI-H520; first compound 0.005 µM): 0.605 | relative viability (NCI-H520; first compound 0.01581 µM): 0.65 | relative viability (NCI-H520; first compound 0.05 µM): 0.639 | relative viability (NCI-H520; first compound 0.1581 µM): 0.528 | relative viability (NCI-H520; first compound 0.5 µM): 0.398 | relative viability (NCI-H441; first compound 0.005 µM): 0.273 | relative viability (NCI-H441; first compound 0.01581 µM): 0.251 | relative viability (NCI-H441; first compound 0.05 µM): 0.331 | relative viability (NCI-H441; first compound 0.1581 µM): 0.226 | relative viability (NCI-H441; first compound 0.5 µM): 0.144 | relative viability (EKVX; first compound 0.005 µM): 0.473 | relative viability (EKVX; first compound 0.01581 µM): 0.364 | relative viability (EKVX; first compound 0.05 µM): 0.361 | relative viability (EKVX; first compound 0.5 µM): 0.362 | relative viability (NCI-H1666; first compound 0.005 µM): 0.761 | relative viability (NCI-H1666; first compound 0.01581 µM): 0.718 | relative viability (NCI-H1666; first compound 0.05 µM): 0.754 | relative viability (NCI-H1666; first compound 0.1581 µM): 0.655 | relative viability (NCI-H1666; first compound 0.5 µM): 0.616 | relative viability (SK-MES-1; first compound 0.005 µM): 0.684 | relative viability (SK-MES-1; first compound 0.01581 µM): 0.595 | relative viability (SK-MES-1; first compound 0.05 µM): 0.336 | relative viability (SK-MES-1; first compound 0.1581 µM): 0.233 | relative viability (SK-MES-1; first compound 0.5 µM): 0.207 | relative viability (COR-L 105; first compound 0.005 µM): 0.961 | relative viability (COR-L 105; first compound 0.01581 µM): 1.19 | relative viability (COR-L 105; first compound 0.05 µM): 0.678 | relative viability (COR-L 105; first compound 0.1581 µM): 0.579 | relative viability (COR-L 105; first compound 0.5 µM): 0.383 | relative viability (NCI-H2170; first compound 0.005 µM): 0.331 | relative viability (NCI-H2170; first compound 0.01581 µM): 0.291 | relative viability (NCI-H2170; first compound 0.05 µM): 0.333 | relative viability (NCI-H2170; first compound 0.1581 µM): 0.205 | relative viability (NCI-H2170; first compound 0.5 µM): 0.183 | relative viability (ChaGo-K-1; first compound 0.005 µM): 0.264 | relative viability (ChaGo-K-1; first compound 0.01581 µM): 0.249 | relative viability (ChaGo-K-1; first compound 0.05 µM): 0.239 | relative viability (ChaGo-K-1; first compound 0.1581 µM): 0.209 | relative viability (ChaGo-K-1; first compound 0.5 µM): 0.192 | relative viability (NCI-H1734; first compound 0.005 µM): 0.501 | relative viability (NCI-H1734; first compound 0.01581 µM): 0.236 | relative viability (NCI-H1734; first compound 0.05 µM): 0.193 | relative viability (NCI-H1734; first compound 0.1581 µM): 0.117 | relative viability (NCI-H1734; first compound 0.5 µM): 0.103 | relative viability (HCC-366; first compound 0.005 µM): 0.161 | relative viability (HCC-366; first compound 0.01581 µM): 0.217 | relative viability (HCC-366; first compound 0.05 µM): 0.25 | relative viability (HCC-366; first compound 0.1581 µM): 0.0693 | relative viability (HCC-366; first compound 0.5 µM): 0.062 | relative viability (H3255; first compound 0.005 µM): 0.625 | relative viability (H3255; first compound 0.01581 µM): 0.565 | relative viability (H3255; first compound 0.05 µM): 0.506 | relative viability (H3255; first compound 0.1581 µM): 0.526 | relative viability (H3255; first compound 0.5 µM): 0.432
